Measured values as given in PMC3901242, “Determining Enzyme Kinetics for Systems Biology with Nuclear Magnetic Resonance Spectroscopy” (Metabolites, 2012).

Target: T1, phosphofructokinase (PFK, EC 2.7.1.11) (Escherichia coli, UniProt P0A796)
T1 construct: gene pfkA; native enzyme in whole-cell extract of mid-log micro-aerobic cells (sonication or glass beads), not purified; PFK-1 tetrameric; minor PFK-2 (pfkB) may be present
T1 sequence (P0A796 1-320): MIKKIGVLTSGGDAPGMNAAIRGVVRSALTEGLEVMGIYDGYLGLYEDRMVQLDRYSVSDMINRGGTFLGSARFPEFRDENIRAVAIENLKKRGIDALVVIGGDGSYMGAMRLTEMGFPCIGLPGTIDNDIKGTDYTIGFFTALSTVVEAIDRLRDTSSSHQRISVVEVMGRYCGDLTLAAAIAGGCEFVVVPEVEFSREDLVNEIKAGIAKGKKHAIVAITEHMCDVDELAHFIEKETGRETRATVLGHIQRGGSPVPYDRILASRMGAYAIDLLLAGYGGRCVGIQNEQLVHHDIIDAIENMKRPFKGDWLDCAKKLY
Experiment: […]-NMR progress curves, global fit to irreversible bi-substrate Hill equation with negative allosteric modifier
Assay type: biochemical
Settings: allosteric inhibitor; co-substrates F6P and ATP; PEP 4 and 8 mM initial; 1 mM Mg2+; 100 mM PIPES pH 7.2, 25 °C; cell extract

C=C(OP(=O)(O)O)C(=O)O [PEP]
Fitted parameters ^b: 0.0863 ± 0.0001 mM
